Assays:
SKCO1 and GEO cells = test: Cell proliferation assay with or without gefitinib; type: cell-based; settings: PRMT1-overexpressing and vector control cells
Excerpt: (§1) FIGS. 1A-F. PRMT1-mediated cell proliferation and colony formation are EGFR signaling dependent. FIG. 1A. Cell proliferation assay of SKCO1 (left) and GEO (right) cells exogenously expressing PRMT1, PRMT1 shRNA, and control vector. In the top graphs, the top lines represent PRMT1 and the bottom lines represent Vector. In the bottom graphs, the top lines represent Vector and the bottom lines represent PRMT1 shRNA. P<0.05, t-test. FIG. 1B. Soft agar assay of SKCO1 cells exogenously expressing PRMT1, PRMT1 shRNA and control vector. Representative images from the anchorage-independent growth assay are shown above. *P<0.05, **P<0.005, t-test. FIG. 1C. Cell proliferation assay of SKCO1 (top) and GEO (bottom) cells expressing PRMT1 or vector control with or without gefitinib treatment. In both graphs, the top solid lines represent PRMT1 and the bottom solid lines represent Vector. In the top graph, the top dashed line represents PRMT1+gefitinib and the bottom dashed line represents Vector+gefitinib. P<0.05, t-test. FIG. 1D. Soft agar assay of SKCO1 exogenously expressing PRMT1 and control vector with or without gefitinib treatment. **P<0.005, t-test. FIG. 1E. […] All quantitative data were generated from a minimum of three replicates. Data are expressed as mean±s.d.
Cells were then trypsinized and cell numbers counted on a daily basis.

SKCO1 cells = test: Anchorage-independent growth (soft agar) assay for colony formation with or without gefitinib; type: cell-based; settings: PRMT1-overexpressing and vector control cells
Excerpt: as §1, with “1D.” for “1D. Soft agar assay of SKCO1 exogenously expressing PRMT1 and control vector with or without gefitinib treatment. **P<0.005, t-test. FIG. 1E.”
The base layer of cell growth matrix containing DMEM/F12 medium, 10% FBS, and 0.5% agar was paved in 6-well plates (1.5 ml per well). […] Colonies with a diameter larger than 0.5 mm were counted.

In the case of `COc1cc2ncnc(Nc3ccc(F)c(Cl)c3)c2cc1OCCCN1CCOCC1` [gefitinib], the cell proliferation (SKCO1 and GEO cells) is reported as “significantly inhibited” and the colony formation (SKCO1 cells) is reported as “significantly inhibited”.

— patent publication US11452775B2, “Detection of arginine methylation of EGFR for prediction of resistance to therapy” (Board of Regents, The University of Texas System, priority 2013, dated 2022)
